Patent US8669246B2, “Substituted amide compound” (Astellas Pharma Inc., priority 2009, dated 2014)

Assays:
[1] = tested on: LPA-induced increase in urethral pressure; assay: Inhibitory action on LPA-induced increase in urethral pressure in rats under anesthesia; assay type: in vivo, rat (male Wistar); details: Rattus norvegicus, 5 min; 0.1 mg/kg intravenous, LPA (1-oleoyl) 3 mg/kg iv after 5 minutes, anesthetized rats, vs solvent; read-out: Inhibitory rate
Protocol: Inhibitory Action of Compound of Formula (I) on LPA-Induced Increase in Urethral Pressure in Rats Under Anesthesia (with Intravenous Administration at 0.1 mg/kg) Male Wistar rats (Charles River, 9- to 12-week old) were anesthetized with urethane (1.2 g/kg ip), and held in the supine position on an operating table kept at 37° C. The lower abdominal portion was midline-incised and the bladder was thus exposed. A small portion of the bladder apex was incised, a microchip pressure transducer (Millar) was inserted antegrade, and then placed in the urethra, and the urethral pressure was recorded continuously. In addition, a cannula for administration of a drug was placed into the femoral vein. After about 1 hour of stabilization, the compound of formula (I) (0.1 mg/kg) was administered intravenously. After 5 minutes, LPA (1-oleoyl) was administered intravenously at 3 mg/kg, and the changes in the urethral pressure were recorded. The inhibitory rates (%) of the compound of the formula (I) on the LPA-stimulated increase in the urethral pressure compared with those after administration of the solvent of the compound of the formula (I) were recorded.

human LPA1 = target: T1, human LPA1 (Homo sapiens, UniProt Q92633); assay: Antagonistic action on human LPA1: inhibition of LPA-stimulated increase in intracellular calcium ion concentration in human LPA1-CHO cells; assay type: cell-based; details: LPA 100 nM, Fluo-4/FLIPR calcium signal
T1 construct: expressed in transfected cells
Protocol: Antagonistic Action of Compound of Formula (I) on Human LPA1
The antagonistic action on a human LPA 1 was evaluated with an index of an inhibitory action on the LPA-stimulated increase in intracellular calcium ion concentration, using human LPA 1-CHO cells [cells in which human LPA1 receptors are stably expressed in CHO (dhfr gene-deficient) cell lines].
Establishment of human LPA1-CHO cells was performed based on the basic genetic engineering techniques.
The established cells were maintained by passage in a nucleic acid-free α-MEM medium (Invitrogen) containing 10% FBS, 1% penicillin/streptomycin (Invitrogen), and 100 nM methotrexate, and before experiment, the medium was replaced with a medium that had been reduced to 1% of the […] concentration, then seeded in 96-well plates to 1.5×10e^5 cells/100 μL/well, and incubated overnight.
On the day of experiment, a 0.5 μM Fluo-4 solution [a solution prepared by adding 20 mM HEPES (Sigma), […] probenecid (Nacalai Tesque), 0.05% BSA, 0.5 μM Fluo-4 AM (Dojindo Laboratories), and 0.1% Pluronic […] (Molecular Probe Co.) to a Hanks Balanced Solt Solution (Invitrogen)] was added to the cells, and Fluo-4 was loaded on the cells by incubating for 2 hours at room temperature.
After loading Fluo-4, the Fluo-4 solution was replaced with a reaction solution [a solution obtained by adding 20 mM HEPES, […] probenecid, and 0.05% BSA to a Hanks Balanced Solt Solution], and then measurement was performed using a device for measuring an intracellular calcium concentration (FLIPR tetra, Molecular Devices Inc.).
A reaction solution in which the compound of the formula (I) (with a final concentration of 0.1 nM to 10 μM) had been dissolved was added to each of the wells, the signals were measured over time for 4 minutes, then a reaction solution in which LPA (final concentration 100 nM) had been dissolved was added thereto, and the signals were measured over time for 2 minutes. The difference between the maximum and minimum response during one minute from addition of LPA was calculated. The inhibitory activity was calculated, with a response when LPA only (not including the compound) was added was taken as 0% inhibition, and a response when a reaction solution not including both of the compound and LPA was added was taken as 100% inhibition. Then the 50% inhibitory concentration was calculated as an IC50 value (nM).
Human LPA1-CHO cells used in the present test were the cells with the same sequence as described in the pamphlet of International Publication WO 99/19513 were used. Further, Ex represents Example No. as denoted below.

[2] = Estimation of concentration in plasma after oral administration in rats using ex vivo bioassay method; details: male, Wistar, rat, 2 hours after oral administration, estimated by ex vivo bioassay from standard curve
Protocol: Estimation of Concentration in Plasma (2 Hours after Oral Administration) after Administration of Compound of Formula (I) in Rats Using Ex Vivo Bioassay Method
The concentration in the plasma after administration of the compound of the formula (I) in rats was estimated according to a bioassay method. That is, test compounds were orally administered to male Wistar rats (Charles River, 6-week old, and fasted), and after a certain period of time, blood was collected from the ophthalmic basilar plexus to give plasma. The compound was extracted from the plasma, and the extracted compound was dissolved in a certain amount of DMSO. Further, for the standard curve, the plasma in which the compounds at various concentrations had been dissolved was prepared separately, and the same extraction procedure was conducted.
The inhibitory action on the LPA-stimulated increase in the intracellular calcium ion concentration in LPA1-expressing cells in the DMSO extract was measured, and the plasma concentration in the individual after administration was estimated from the standard curve.

T1 sequence (Q92633 whole entry): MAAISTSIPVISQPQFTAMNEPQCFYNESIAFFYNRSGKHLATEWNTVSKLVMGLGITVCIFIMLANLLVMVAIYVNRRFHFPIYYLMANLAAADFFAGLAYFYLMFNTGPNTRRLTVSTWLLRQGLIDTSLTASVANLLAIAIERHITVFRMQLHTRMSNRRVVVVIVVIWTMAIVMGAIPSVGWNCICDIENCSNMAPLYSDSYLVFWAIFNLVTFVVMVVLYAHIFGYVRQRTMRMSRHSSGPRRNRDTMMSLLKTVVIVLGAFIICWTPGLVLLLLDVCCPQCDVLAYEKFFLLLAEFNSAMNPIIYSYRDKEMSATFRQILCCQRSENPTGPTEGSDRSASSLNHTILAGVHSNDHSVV

Compound	IC50 (human LPA1) [nM]	concentration at 2 h [2] [nM]	melting point [°C]	inhibition in vivo at 0.1 mg/kg [1] [%]
CNS(=O)(=O)NC(=O)c1nc(CN(CCCc2ccccc2)C(=O)c2cc(OC)c(C)c(OC)c2)cs1 [Example 63]				28
COc1ccc(C(O)C(=O)N(CCCc2ccccc2)Cc2nc(C(=O)NS(N)(=O)=O)c(C)s2)cc1 (stereo not drawn) [Example 176]	24	4500	120 to 121	
CONS(=O)(=O)NC(=O)c1nc(CN(CCCc2ccccc2)C(=O)c2cc(OC)cc(OC)c2)sc1C [Example 134]	25	1400		
COc1ccc(C2(C(=O)N(CCCc3cccc(F)c3)Cc3nc(C(=O)NS(=O)(=O)N(C)C)c(C)s3)CC2)nc1 [Example 208]	40		114 to 115	14
COc1ccc(CC(=O)N(CCCc2ccccc2)Cc2nc(C(=O)NS(=O)(=O)N(C)C)c(C)s2)c(OC)c1 [Example 126]	20	8900	132 to 135	
COc1ccc(C2(C(=O)N(CCCc3ccco3)Cc3nc(C(=O)NS(=O)(=O)N(C)C)c(C)s3)CC2)cc1 [Example 233]	22			38
CNS(=O)(=O)NC(=O)c1nc(CN(CCCc2ccccc2)C(=O)c2cc(OC)c(Cl)c(OC)c2)sc1Cl [Example 162]				21
COc1ccc([C@@H](O)C(=O)N(CCCc2ccccc2)Cc2nc(C(=O)NS(C)(=O)=O)c(C)s2)c(F)c1 [Example 277]	12		121 to 123	42
COc1ccc(C(O)C(=O)N(CCCc2ccccc2)Cc2nc(C(=O)NS(=O)(=O)N(C)C)c(C)s2)c(F)c1 (stereo not drawn) [Example 27]	14	6500		
CNS(=O)(=O)NC(=O)c1nc(CN(CCCc2cccs2)C(=O)[C@H](O)c2ccc(OC)cc2)sc1C [Example 283]	29		106 to 109	
COc1cc(OC)cc(C(=O)N(CCCc2ccccc2)Cc2nc(C(=O)NS(C)(=O)=O)c(Cl)s2)c1 [Example 145]	23	5600	113 to 114	16
COc1ccc(C2(C(=O)N(CCCc3ccc(C)o3)Cc3nc(C(=O)NS(=O)(=O)N(C)C)c(C)s3)CC2)nc1 [Example 200]	33			31
COc1cc(C(=O)N(CCCc2ccccc2)Cc2nc(C(=O)NS(N)(=O)=O)cs2)cc(OC)c1Br [Example 132]				42
COc1cc(C(=O)N(CCCc2ccccc2)Cc2nc(C(=O)NS(=O)(=O)N(CCO)CCO)c(C)s2)cc(OC)c1C [Example 171]		2200		
C=Cc1c(OC)cc(C(=O)N(CCCc2ccccc2)Cc2nc(C(=O)NS(N)(=O)=O)cs2)cc1OC [Example 130]				39
COc1ccc(C2(C(=O)N(CCCc3ccccc3)Cc3nc(C(=O)NS(=O)(=O)N(C)C)c(C)s3)CC2)cc1 [Example 56]	29	1800		
CCS(=O)(=O)NC(=O)c1nc(CN(CCCc2ccccc2)C(=O)[C@H](O)c2ccc(OC)cc2)sc1C [Example 266]	65		123 to 125	15
COc1cc(C(=O)N(CCCc2ccccc2)Cc2nc(C(=O)NS(=O)(=O)N(C)CCF)c(C)s2)cc(OC)c1C [Example 100]		6700		

Second part, led by results:

IC50 (human LPA1) [nM]	concentration at 2 h [2] [nM]	melting point [°C]	Compound	inhibition in vivo at 0.1 mg/kg [1] [%]
7.5			COc1cc(C(=O)N(CCCc2ccccc2)Cc2ccc(C(=O)NS(N)(=O)=O)o2)cc(OC)c1C [Example 123]	39
15	2100		CNS(=O)(=O)NC(=O)c1nc(CN(CCCc2ccccc2)C(=O)c2cc(OC)c(C3CC3)c(OC)c2)sc1C [Example 156]	
7.2		147 to 149	COc1cc(C(=O)N(CCCc2ccccc2)Cc2nc(C(=O)NS(N)(=O)=O)cs2)cc(OC)c1C1CC1 [Example 131]	38
6.6			COc1cc(C(=O)N(CCCc2ccc(C)o2)Cc2nc(C(=O)NS(N)(=O)=O)cs2)cc(OC)c1C [Example 111]	56
9.9			CNS(=O)(=O)NC(=O)c1csc(CN(CCCc2ccsc2)C(=O)c2cc(OC)c(C)c(OC)c2)n1 [Example 137]	17
16	2100	143 to 144	CCNS(=O)(=O)NC(=O)c1csc(CN(CCCc2ccccc2)C(=O)c2cc(OC)c(C)c(OC)c2)n1 [Example 71]	18
17	2400	135 to 137	COC(=O)N(C)S(=O)(=O)NC(=O)c1csc(CN(CCCc2ccccc2)C(=O)c2cc(OC)c(C)c(OC)c2)n1 [Example 89]	
24	1300		COc1cc(C(=O)N(CCCc2ccccc2)Cc2nc(C(=O)NS(=O)(=O)N(CCO)CCF)cs2)cc(OC)c1C [Example 22, 2-{[(3,5-dimethoxy-4-methylbenzoyl)(3-phenylpropyl)amino]methyl}-N-{[(2-fluoroethyl)(2-hydroxyethyl)amino]sulfonyl}-1,3-thiazole-4-carboxamide]	
21	5200	162 to 164	CCc1c(OC)cc(C(=O)N(CCCc2ccccc2)Cc2nc(C(=O)NS(=O)(=O)NC)c(C)s2)cc1OC [Example 153]	21
8.8		147 to 150	COc1cc(C(=O)N(CCCc2ccccc2)Cc2nc(C(=O)NS(N)(=O)=O)cs2)cc(OC)c1C [Example 69]	33
34	1800	127 to 129	CCN(CCO)S(=O)(=O)NC(=O)c1csc(CN(CCCc2ccccc2)C(=O)c2cc(OC)c(C)c(OC)c2)n1 [Example 170]	
11		133 to 134	COc1cc(C(=O)N(CCCc2ccccc2)Cc2nc(C(=O)NS(C)(=O)=O)cs2)cc(OC)c1C [Example 108]	
	8300		COc1cc(C(=O)N(CCCc2ccccc2)Cc2nc(C(=O)N(C)S(N)(=O)=O)cs2)cc(OC)c1C [Example 9, N-(aminosulfonyl)-2-{[(3,5-dimethoxy-4-methylbenzoyl)(3-phenylpropyl)amino]methyl}-N-methyl-1,3-thiazole-4-carboxamide]	28
12			COc1cc(C(=O)N(CCCc2ccccc2)Cc2nc(C(=O)NS(=O)(=O)CCO)cs2)cc(OC)c1C [Example 167]	35
11		173 to 175	COc1cc(C(=O)N(CCCc2ccccc2)Cc2csc(C(=O)NS(N)(=O)=O)n2)cc(OC)c1C [Example 62]	
